From patent US10787452B2 (Vertex Pharmaceuticals Incorporated, priority 2012, dated 2020)

test system: HCT116 colorectal cancer cells; assay: Cisplatin sensitization assay (96 h cell viability MTS); type: cell-based; settings: 96 h MTS, compound plus Cisplatin;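 note: compound concentration needed to lower the Cisplatin-alone IC50 by a set fold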
In short: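 Viability is measured with MTS reagent, added after 96 h and developed for 1 h at 37° C. Beforehand, cells receive compound and cisplatin simultaneously in a concentration matrix of 2-fold serial dilutions starting at 10 μM final.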

Structure (SMILES)	Cisplatin Sensitization Assay
CN1CCN(C(=O)N2CCN(c3c(F)cncc3NC(=O)c3c(N)nn4cc(F)cnc34)CC2)CC1 [I-N-140, 2-amino-6-fluoro-N-(5-fluoro-4-(4-(4-methylpiperazine-1-carbonyl)piperazin-1-yl)pyridin-3-yl)pyrazolo[1,5-a]pyrimidine-3-carboxamide]	+++ (Compounds with a Cisplatin sensitization value of <0.02 μM are marked with “+++.”)
Nc1nn2cc(F)cnc2c1C(=O)Nc1cnccc1N1CCOCC1 [I-N-141, 2-amino-6-fluoro-N-(4-morpholinopyridin-3-yl)pyrazolo[1,5-a]pyrimidine-3-carboxamide]	+++ (Compounds with a Cisplatin sensitization value of <0.02 μM are marked with “+++.”)
CC(C)(C#N)c1cnc2c(C(=O)Nc3cnccc3N3CCN(C4COC4)CC3)c(N)nn2c1 [I-N-142, 2-amino-6-(2-cyanopropan-2-yl)-N-(4-(4-(oxetan-3-yl)piperazin-1-yl)pyridin-3-yl)pyrazolo[1,5-a]pyrimidine-3-carboxamide]	++ (Compounds with a Cisplatin sensitization value >0.02 μM but <0.2 μM are marked with “++.”)
CC(C#N)c1cnc2c(C(=O)Nc3cnccc3N3CCN(C4COC4)CC3)c(N)nn2c1 (centres unmarked) [I-N-143, 2-amino-6-(1-cyanoethyl)-N-(4-(4-(oxetan-3-yl)piperazin-1-yl)pyridin-3-yl)pyrazolo[1,5-a]pyrimidine-3-carboxamide]	++ (Compounds with a Cisplatin sensitization value >0.02 μM but <0.2 μM are marked with “++.”)
CC(C)(C#N)c1cnc2c(C(=O)Nc3cncc(F)c3N3CCN(C4COC4)CC3)c(N)nn2c1 [I-N-144]	+++ (Compounds with a Cisplatin sensitization value of <0.02 μM are marked with “+++.”)
CN(C)S(=O)(=O)C1CCN(c2c(F)cncc2NC(=O)c2c(N)nn3cc(F)cnc23)CC1 [I-N-146, 2-amino-N-(4-(4-(N,N-dimethylsulfamoyl)piperidin-1-yl)-5-fluoropyridin-3-yl)-6-fluoropyrazolo[1,5-a]pyrimidine-3-carboxamide]	+++ (Compounds with a Cisplatin sensitization value of <0.02 μM are marked with “+++.”)
Nc1nn2cc(F)cnc2c1C(=O)Nc1cncc(F)c1N1CCC(N2CCCC2=O)CC1 [I-N-147, 2-amino-6-fluoro-N-(5-fluoro-4-(4-(2-oxopyrrolidin-1-yl)piperidin-1-yl)pyridin-3-yl)pyrazolo[1,5-a]pyrimidine-3-carboxamide]	+++ (Compounds with a Cisplatin sensitization value of <0.02 μM are marked with “+++.”)
CN1CCC(N(C)S(=O)(=O)C2CCN(c3c(F)cncc3NC(=O)c3c(N)nn4cc(F)cnc34)CC2)CC1 [I-N-148, 2-amino-6-fluoro-N-(5-fluoro-4-(4-(N-methyl-N-(1-methylpiperidin-4-yl)sulfamoyl)piperidin-1-yl)pyridin-3-yl)pyrazolo[1,5-a]pyrimidine-3-carboxamide]	+++ (Compounds with a Cisplatin sensitization value of <0.02 μM are marked with “+++.”)
Nc1nn2cc(F)cnc2c1C(=O)Nc1cncc(F)c1N1CCC(CN2CCOCC2)CC1 [I-N-149, 2-amino-6-fluoro-N-(5-fluoro-4-(4-(morpholinomethyl)piperidin-1-yl)pyridin-3-yl)pyrazolo[1,5-a]pyrimidine-3-carboxamide]	+++ (Compounds with a Cisplatin sensitization value of <0.02 μM are marked with “+++.”)
CN1CCN(CC2CCN(c3c(F)cncc3NC(=O)c3c(N)nn4cc(F)cnc34)CC2)CC1 [I-N-150, 2-amino-6-fluoro-N-(5-fluoro-4-(4-((4-methylpiperazin-1-yl)methyl)piperidin-1-yl)pyridin-3-yl)pyrazolo[1,5-a]pyrimidine-3-carboxamide]	+++ (Compounds with a Cisplatin sensitization value of <0.02 μM are marked with “+++.”)
CN1CCN(C2CCN(c3c(F)cncc3NC(=O)c3c(N)nn4cc(F)cnc34)CC2)C(=O)C1 [I-N-151, 2-amino-6-fluoro-N-(5-fluoro-4-(4-(4-methyl-2-oxopiperazin-1-yl)piperidin-1-yl)pyridin-3-yl)pyrazolo[1,5-a]pyrimidine-3-carboxamide]	+ (Compounds with a Cisplatin sensitization value >0.2 μM but <5 μM are marked with “+.”)
Nc1nn2cc(F)cnc2c1C(=O)Nc1cnccc1N1CCCCC1 [I-N-152, 2-amino-6-fluoro-N-(4-(piperidin-1-yl)pyridin-3-yl)pyrazolo[1,5-a]pyrimidine-3-carboxamide]	+++ (Compounds with a Cisplatin sensitization value of <0.02 μM are marked with “+++.”)
CN(C)CC(=O)N1CCN(c2c(F)cncc2NC(=O)c2c(N)nn3cc(F)cnc23)CC1 [I-N-153, 2-amino-N-(4-(4-(2-(dimethylamino)acetyl)piperazin-1-yl)-5-fluoropyridin-3-yl)-6-fluoropyrazolo[1,5-a]pyrimidine-3-carboxamide]	++ (Compounds with a Cisplatin sensitization value >0.02 μM but <0.2 μM are marked with “++.”)
CN1CCC(OC2CCN(c3ccncc3NC(=O)c3c(N)nn4cc(F)cnc34)CC2)CC1 [I-N-154, 2-amino-6-fluoro-N-(4-(4-((1-methylpiperidin-4-yl)oxy)piperidin-1-yl)pyridin-3-yl)pyrazolo[1,5-a]pyrimidine-3-carboxamide]	+++ (Compounds with a Cisplatin sensitization value of <0.02 μM are marked with “+++.”)
Nc1nn2cc(F)cnc2c1C(=O)Nc1cncc(F)c1N1CCC(S(=O)(=O)N2CCOCC2)CC1 [I-N-155, 2-amino-6-fluoro-N-(5-fluoro-4-(4-(morpholinosulfonyl)piperidin-1-yl)pyridin-3-yl)pyrazolo[1,5-a]pyrimidine-3-carboxamide]	+++ (Compounds with a Cisplatin sensitization value of <0.02 μM are marked with “+++.”)
CN1CCC(C(=O)N2CCN(c3c(F)cncc3NC(=O)c3c(N)nn4cc(F)cnc34)CC2)C1 (centres unmarked) [I-N-156, 2-amino-6-fluoro-N-(5-fluoro-4-(4-(1-methylpyrrolidine-3-carbonyl)piperazin-1-yl)pyridin-3-yl)pyrazolo[1,5-a]pyrimidine-3-carboxamide]	+++ (Compounds with a Cisplatin sensitization value of <0.02 μM are marked with “+++.”)
CN1CCC[C@H]1C(=O)N1CCN(c2c(F)cncc2NC(=O)c2c(N)nn3cc(F)cnc23)CC1 [I-N-157, (S)-2-amino-6-fluoro-N-(5-fluoro-4-(4-(1-methylpyrrolidine-2-carbonyl)piperazin-1-yl)pyridin-3-yl)pyrazolo[1,5-a]pyrimidine-3-carboxamide]	++ (Compounds with a Cisplatin sensitization value >0.02 μM but <0.2 μM are marked with “++.”)
Nc1nn2cc(F)cnc2c1C(=O)Nc1cncc(F)c1N1CCN(S(=O)(=O)C2CCOCC2)CC1 [I-N-158, 2-amino-6-fluoro-N-(5-fluoro-4-(4-((tetrahydro-2H-pyran-4-yl)sulfonyl)piperazin-1-yl)pyridin-3-yl)pyrazolo[1,5-a]pyrimidine-3-carboxamide]	+++ (Compounds with a Cisplatin sensitization value of <0.02 μM are marked with “+++.”)
Nc1nn2cc(F)cnc2c1C(=O)Nc1cncc(F)c1N1CCN(S(=O)(=O)C2CC2)CC1 [I-N-159, 2-amino-N-(4-(4-(cyclopropylsulfonyl)piperazin-1-yl)-5-fluoropyridin-3-yl)-6-fluoropyrazolo[1,5-a]pyrimidine-3-carboxamide]	+++ (Compounds with a Cisplatin sensitization value of <0.02 μM are marked with “+++.”)
Nc1nn2cc(F)cnc2c1C(=O)Nc1cncc(F)c1N1CCN(C(=O)CN2CCC2)CC1 [I-N-160, 2-amino-N-(4-(4-(2-(azetidin-1-yl)acetyl)piperazin-1-yl)-5-fluoropyridin-3-yl)-6-fluoropyrazolo[1,5-a]pyrimidine-3-carboxamide]	+++ (Compounds with a Cisplatin sensitization value of <0.02 μM are marked with “+++.”)
Cc1ncn(-c2ccncc2NC(=O)c2c(N)nn3cc(F)cnc23)n1 [I-N-161, 2-amino-6-fluoro-N-(4-(3-methyl-1H-1,2,4-triazol-1-yl)pyridin-3-yl)pyrazolo[1,5-a]pyrimidine-3-carboxamide]	+ (Compounds with a Cisplatin sensitization value >0.2 μM but <5 μM are marked with “+.”)
Cc1ncnn1-c1ccncc1NC(=O)c1c(N)nn2cc(F)cnc12 [I-N-162, 2-amino-6-fluoro-N-(4-(5-methyl-1H-1,2,4-triazol-1-yl)pyridin-3-yl)pyrazolo[1,5-a]pyrimidine-3-carboxamide]	++ (Compounds with a Cisplatin sensitization value >0.02 μM but <0.2 μM are marked with “++.”)
Nc1nn2cc(F)cnc2c1C(=O)Nc1cncc(F)c1N1CCN2C(=O)CCC2C1 (centres unmarked) [I-N-163, 2-amino-6-fluoro-N-(5-fluoro-4-(6-oxohexahydropyrrolo[1,2-a]pyrazin-2(1H)-yl)pyridin-3-yl)pyrazolo[1,5-a]pyrimidine-3-carboxamide]	+++ (Compounds with a Cisplatin sensitization value of <0.02 μM are marked with “+++.”)
CN1CC(OC2CCN(c3ccncc3NC(=O)c3c(N)nn4cc(F)cnc34)CC2)C1 [I-N-164, 2-amino-6-fluoro-N-(4-(4-((1-methylazetidin-3-yl)oxy)piperidin-1-yl)pyridin-3-yl)pyrazolo[1,5-a]pyrimidine-3-carboxamide]	+++ (Compounds with a Cisplatin sensitization value of <0.02 μM are marked with “+++.”)
CS(=O)(=O)C1CCN(c2c(F)cncc2NC(=O)c2c(N)nn3cc(F)cnc23)CC1 [I-N-165, 2-amino-6-fluoro-N-(5-fluoro-4-(4-(methylsulfonyl)piperidin-1-yl)pyridin-3-yl)pyrazolo[1,5-a]pyrimidine-3-carboxamide]	+++ (Compounds with a Cisplatin sensitization value of <0.02 μM are marked with “+++.”)
CN1CCN(S(=O)(=O)C2CCN(c3c(F)cncc3NC(=O)c3c(N)nn4cc(F)cnc34)CC2)CC1 [I-N-166, 2-amino-6-fluoro-N-(5-fluoro-4-(4-((4-methylpiperazin-1-yl)sulfonyl)piperidin-1-yl)pyridin-3-yl)pyrazolo[1,5-a]pyrimidine-3-carboxamide]	+++ (Compounds with a Cisplatin sensitization value of <0.02 μM are marked with “+++.”)
